Experimental data published in paper PMC5288202, “Simultaneous inhibition of Vps34 kinase would enhance PI3Kδ inhibitor cytotoxicity in the B-cell malignancies” (Oncotarget, 2016).

Columns and labels:
VPS34 [1] = biological target: T1, VPS34 (Homo sapiens, UniProt Q8NEB9); assay: ADP-Glo biochemical assay; conditions: purified protein, 50 μM ATP, read-out: IC50 against VPS34
T1 construct: purchased Invitrogen
Experimental: (§2) The activities of PI3Kα, PI3Kβ, PI3Kδ, PI3Kγ, PI3KC2α, PI3KC2β, Vps34, PI4Kα and PI4Kβ were determined by using ADP-Glo assay, a fluorescence-based immunoassay that measures kinase activity in terms of the amount of ADP produced. A kinase titration was performed to determine the concentration. The amount of recombinant kinases was optimized to keep the reaction velocity within the linear range, to obtain an adequate difference between the resulting signals of sample in/out the presence of enzyme. The optimized enzyme concentrations for evaluating the inhibitory activities of compounds were chosen as follows: 0.16 μg/ml, 6.0 μg/ml, 1.0 μg/ml, 5.0 μg/ml, 5.0 μg/ml, 10.0 μg/ml, 1.2 μg/ml, 1.2 μg/ml and 1.0 μg/ml for PI3Kα, PI3Kβ, PI3Kδ, PI3Kγ, PI3KC2α, PI3KC2β, Vps34, PI4Kα and PI4Kβ, respectively. The ATP concentration was optimized, 10 μM ATP for PI3Kα and PI3Kβ, and 50 μM ATP for detection of the other seven kinases. The PI3Kα, PI3Kβ, PI3Kδ, PI3Kγ, PI3KC2α, PI3KC2β kinase reactions were carried out in 10 μl volume in a 384-well plate in the kinase reaction buffer containing 50 mM Hepes pH 7.5, 3 mM MgCl2, 1 mM EGTA, 1 mM NaCl, 0.03% CHAPS and 2 mM DTT. […] 10 μl kinase detection reagent was dded and incubated for 30 min at room temperature, before the luminescence signal was read with an envision PerkinElmer plate reader.

PI4KA = biological target: T2, PI4KA (Homo sapiens, UniProt P42356); assay: ADP-Glo biochemical assay; conditions: 50 μM ATP, read-out: IC50 against PI4KA
T2 construct: purchased Invitrogen
T2 sequence (P42356 whole entry): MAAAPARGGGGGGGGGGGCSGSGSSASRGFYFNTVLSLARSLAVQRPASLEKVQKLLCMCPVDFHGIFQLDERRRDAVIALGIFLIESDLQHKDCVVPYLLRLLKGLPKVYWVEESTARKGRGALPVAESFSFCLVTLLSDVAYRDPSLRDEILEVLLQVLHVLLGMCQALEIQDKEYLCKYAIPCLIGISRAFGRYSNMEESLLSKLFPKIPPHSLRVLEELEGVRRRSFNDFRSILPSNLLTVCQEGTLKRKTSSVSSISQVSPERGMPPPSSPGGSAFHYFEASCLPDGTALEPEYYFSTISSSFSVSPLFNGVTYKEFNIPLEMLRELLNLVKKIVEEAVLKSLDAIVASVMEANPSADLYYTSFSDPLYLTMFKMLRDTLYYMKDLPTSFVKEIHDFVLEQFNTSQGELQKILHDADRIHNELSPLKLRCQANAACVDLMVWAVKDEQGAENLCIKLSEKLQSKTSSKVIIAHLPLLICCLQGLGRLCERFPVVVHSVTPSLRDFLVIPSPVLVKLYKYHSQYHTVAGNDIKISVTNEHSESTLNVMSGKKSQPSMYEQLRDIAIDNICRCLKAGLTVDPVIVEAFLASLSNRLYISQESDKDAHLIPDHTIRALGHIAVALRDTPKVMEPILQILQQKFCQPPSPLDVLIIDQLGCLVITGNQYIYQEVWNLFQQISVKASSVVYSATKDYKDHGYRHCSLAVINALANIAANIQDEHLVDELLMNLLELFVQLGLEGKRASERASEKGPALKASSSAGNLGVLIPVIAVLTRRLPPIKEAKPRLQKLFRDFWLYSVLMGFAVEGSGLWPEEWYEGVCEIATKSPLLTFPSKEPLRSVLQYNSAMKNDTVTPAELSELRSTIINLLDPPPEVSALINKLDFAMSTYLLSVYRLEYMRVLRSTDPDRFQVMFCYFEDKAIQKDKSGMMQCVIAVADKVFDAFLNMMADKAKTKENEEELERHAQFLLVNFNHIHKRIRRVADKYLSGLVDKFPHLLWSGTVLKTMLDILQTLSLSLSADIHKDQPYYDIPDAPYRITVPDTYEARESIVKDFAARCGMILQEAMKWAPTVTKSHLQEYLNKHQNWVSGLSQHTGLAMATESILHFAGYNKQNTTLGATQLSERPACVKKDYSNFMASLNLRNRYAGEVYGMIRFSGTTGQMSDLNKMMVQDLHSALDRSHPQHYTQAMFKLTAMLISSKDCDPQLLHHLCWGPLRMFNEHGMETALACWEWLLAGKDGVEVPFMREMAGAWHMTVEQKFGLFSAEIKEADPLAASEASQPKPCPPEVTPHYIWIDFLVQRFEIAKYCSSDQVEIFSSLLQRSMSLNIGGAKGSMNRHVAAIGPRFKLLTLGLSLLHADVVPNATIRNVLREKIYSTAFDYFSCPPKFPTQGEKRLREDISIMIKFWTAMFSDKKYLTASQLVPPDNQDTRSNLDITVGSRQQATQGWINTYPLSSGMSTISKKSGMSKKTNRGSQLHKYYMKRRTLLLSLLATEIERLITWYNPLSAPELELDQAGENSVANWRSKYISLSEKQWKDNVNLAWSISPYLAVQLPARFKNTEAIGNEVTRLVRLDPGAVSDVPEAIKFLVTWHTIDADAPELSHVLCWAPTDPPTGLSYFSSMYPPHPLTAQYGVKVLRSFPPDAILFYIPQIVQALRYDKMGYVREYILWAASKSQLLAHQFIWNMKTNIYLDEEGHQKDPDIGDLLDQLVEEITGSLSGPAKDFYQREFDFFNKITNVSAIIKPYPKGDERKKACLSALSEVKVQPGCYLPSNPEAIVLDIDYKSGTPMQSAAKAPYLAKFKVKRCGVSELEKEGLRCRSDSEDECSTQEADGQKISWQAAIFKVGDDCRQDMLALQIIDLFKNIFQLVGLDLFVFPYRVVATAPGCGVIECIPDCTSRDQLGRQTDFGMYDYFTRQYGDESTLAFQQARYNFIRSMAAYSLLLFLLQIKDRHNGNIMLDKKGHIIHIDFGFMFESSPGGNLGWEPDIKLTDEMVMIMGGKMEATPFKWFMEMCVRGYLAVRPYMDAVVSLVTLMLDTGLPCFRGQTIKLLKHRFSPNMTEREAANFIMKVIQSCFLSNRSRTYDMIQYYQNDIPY

PI3Kδ = PI3Kδ (Homo sapiens, UniProt O00329); assay: biochemical
Experimental: as §2

mTORC1 kinase = mTORC1 kinase (Homo sapiens, UniProt P42345); assay: in vitro IP kinase assay; type: biochemical; conditions: activity-based in vitro IP kinase assay; read-out: EC50 mTORC1 kinase inhibition
VPS34 [2] = biological target: T1, VPS34; assay: Kinase kinetic assay with varied ATP; type: biochemical; conditions: varied ATP concentrations
Experimental: Kinetic analyses of PI3Kδ and Vps34 were performed using a luminometric kinase assay varying the concentration of ATP using the ADP-Glo reagents (Promega). […] After 60 min incubation at RT, varied concentrations of ATP and 0.1 mM substrate (PIP2:PS for PI3Kδ, PI:PS for Vps34) were added and incubated for 60 min at 37° C. The overall rate of reaction was determined as the slope of the decreasing phase of the reaction. Each data point was collected in duplicate and kinetic parameters were obtained using Prism 5.0 (GraphPad Software, San Diego, CA).

NOMO-1 = assay: Anti-proliferative effect; type: cell-based; conditions: Homo sapiens, NOMO-1, read-out: GI50 NOMO-1
HT = assay: Anti-proliferative effect; type: cell-based; conditions: Homo sapiens, read-out: GI50 HT
MV4-11 = assay: Induction of apoptosis (PARP cleavage); type: cell-based
PI3Kα = biological target: T3, PI3Kα (Homo sapiens, UniProt P42336); assay: ADP-Glo biochemical assay; conditions: purified protein, 10 μM ATP, read-out: IC50 against PI3Kα (PIK3CA)
T3 construct: purchased Invitrogen

pERK in MEC-2 cells = assay: pERK immunoblotting; type: cell-based
Source text: The following antibodies were purchased from Cell Signaling Technology: Akt(#4691), Phospho-Akt(Thr308)(#4056), Phospho-Akt(Ser473)(#4060), GAPDH, GSK-3β(#9315), Phospho-GSK-3β(#9323), FoxO1(#2880), Phospho-FoxO1 (Thr24)/FoxO3a(Thr32)/FoxO4(Thr28)(#2599), PRAS40(#2691), Phospho-PRAS40 (Thr246)(#2997), 4E-BP1(#9644), p70 S6K(#2708), Phospho-p70 S6K (Thr389)(#9234). SQSTM1/p62 (D5E2)(#8025), LC3B(#12513). PARP(#9532), Caspase-3(#9665), Phospho-p44/42 MAPK (Erk1/2) (Thr202/Tyr204)(#4377), p44/42 MAPK (Erk1/2) (#4695), Phospho-NF-ΚB P65 (Ser 536)(#3033), NF-ΚB P65(#4764). Lysophosphatidic Acid (#sc-201053, Santa Cruz), Recombinant Human PDGF-BB (#220-BB, R&D), Recombinant Human C5a (Peprotech, #300-70), goat anti-IgM (#5C07615, Meridian). LC3B antibody (#3868, CST). Tubulin antibody (#8035, Santa Cruz). EEA1 antibody (#610456, BD Bioscience) and LAMP1 antibody (#24170, Abcam). Secondary antibodies, Alexa488-anti-mouse, Alexa594-anti-rabbit and Prolong gold mounting medium with DAPI were purchased from Invitrogen.

[3] = tested on: LAMP1 localization in HeLa cells; assay: Immunofluorescence of LAMP1 localization; type: cell-based
Experimental: (§1) HeLa cells were treated with different concentrations of inhibitors for 16 hours. For all immunofluorescence experiments, cells were fixed in -20 °C methanol for 5 minutes or 3.7% (v/v) formaldehyde in phosphate-buffered saline (PBS) for 20 minutes. For LC3B staining, cells were fixed in -20 °C methanol. For EEA1 and LAMP1 staining, cells were fixed in PBS+ formaldehyde. Cells were then permeabilized with TBSTx (0.1% Triton X-100), blocked in AbDil (TBSTx + 2% BSA + 0.1% NaN3), and probed with primary and secondary antibodies diluted in AbDil. Cells were rinsed thoroughly with TBSTx and mounted by anti-fade prolong Gold with DAPI. Images were taken using a Leica DMI4000B fluorescent microscope. All experiments were repeated at least three times). […] Cells were lysed in lysis buffer. P62, LC3B, and GAPDH antibodies were used for immunoblotting.

OCI-AML-2 = assay: Colony formation (colonogenic assay); type: cell-based; conditions: Homo sapiens, OCI-AML2
MEC-1 = assay: Anti-proliferative effect; type: cell-based; conditions: Homo sapiens, MEC1; CLL
[4] = tested on: LC3B puncta in HeLa cells; assay: Immunofluorescence of LC3B puncta; type: cell-based; conditions: 16 hours
Experimental: as §1

MEC-2 [5] = assay: Colony formation (colonogenic assay); type: cell-based; conditions: MEC2; CLL
MEC-2 [6] = assay: Cell cycle analysis; type: cell-based; conditions: MEC-2, 48 h treatment
primary CLL cells = assay: Growth of patient primary cells; type: cell-based; conditions: CLL cell, 72 hours, read-out: cell proliferation inhibited
Source text: Peripheral blood mononuclear cells (PBMCs) from individuals with CLL were isolated by density centrifugation through Ficoll and frozen for each subject. Those subjects with low white counts whose CLL cell purity was expected to be < 85% underwent B cell isolation using RosetteSep. The protocol was approved by the Dana-Farber Harvard Cancer Center Institutional Review Board and all subjects signed written informed consent prior to participation.

CMK = assay: Anti-proliferative effect; type: cell-based; conditions: Homo sapiens, read-out: GI50 CMK
PI3Kβ = biological target: T4, PI3Kβ (Homo sapiens, UniProt P42338); assay: ADP-Glo biochemical assay; conditions: purified protein, 10 μM ATP, read-out: IC50 against PI3Kβ (PIK3CB)
T4 construct: purchased Sigma
T4 sequence (P42338 whole entry): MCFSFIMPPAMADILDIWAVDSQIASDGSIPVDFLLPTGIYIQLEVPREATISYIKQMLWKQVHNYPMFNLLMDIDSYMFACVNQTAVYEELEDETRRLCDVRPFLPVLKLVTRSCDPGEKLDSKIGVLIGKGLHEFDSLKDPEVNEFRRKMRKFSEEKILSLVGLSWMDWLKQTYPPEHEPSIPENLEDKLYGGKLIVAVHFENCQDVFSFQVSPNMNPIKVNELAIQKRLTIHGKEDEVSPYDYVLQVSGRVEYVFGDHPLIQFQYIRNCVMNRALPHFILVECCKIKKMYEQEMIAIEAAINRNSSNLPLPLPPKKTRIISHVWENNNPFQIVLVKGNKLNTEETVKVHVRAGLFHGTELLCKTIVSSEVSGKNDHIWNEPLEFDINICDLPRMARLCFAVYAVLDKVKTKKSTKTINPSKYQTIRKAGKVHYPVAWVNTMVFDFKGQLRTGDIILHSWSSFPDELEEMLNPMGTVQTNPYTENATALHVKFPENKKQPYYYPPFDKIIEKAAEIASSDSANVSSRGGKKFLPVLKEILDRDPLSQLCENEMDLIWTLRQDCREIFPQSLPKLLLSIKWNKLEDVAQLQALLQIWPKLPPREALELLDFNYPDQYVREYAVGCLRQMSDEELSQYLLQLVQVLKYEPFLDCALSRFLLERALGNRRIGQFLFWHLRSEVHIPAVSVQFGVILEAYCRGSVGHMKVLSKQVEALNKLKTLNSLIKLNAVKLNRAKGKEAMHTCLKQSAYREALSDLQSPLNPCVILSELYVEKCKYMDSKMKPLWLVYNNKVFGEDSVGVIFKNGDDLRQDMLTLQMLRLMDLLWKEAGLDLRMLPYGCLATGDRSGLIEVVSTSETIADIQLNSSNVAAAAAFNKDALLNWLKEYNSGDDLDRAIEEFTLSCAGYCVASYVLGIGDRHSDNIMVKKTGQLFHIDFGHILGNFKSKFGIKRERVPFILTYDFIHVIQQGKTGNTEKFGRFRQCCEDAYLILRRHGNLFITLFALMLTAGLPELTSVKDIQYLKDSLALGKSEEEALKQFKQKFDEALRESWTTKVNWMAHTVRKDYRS
T4 sequence (P27986 whole entry partner): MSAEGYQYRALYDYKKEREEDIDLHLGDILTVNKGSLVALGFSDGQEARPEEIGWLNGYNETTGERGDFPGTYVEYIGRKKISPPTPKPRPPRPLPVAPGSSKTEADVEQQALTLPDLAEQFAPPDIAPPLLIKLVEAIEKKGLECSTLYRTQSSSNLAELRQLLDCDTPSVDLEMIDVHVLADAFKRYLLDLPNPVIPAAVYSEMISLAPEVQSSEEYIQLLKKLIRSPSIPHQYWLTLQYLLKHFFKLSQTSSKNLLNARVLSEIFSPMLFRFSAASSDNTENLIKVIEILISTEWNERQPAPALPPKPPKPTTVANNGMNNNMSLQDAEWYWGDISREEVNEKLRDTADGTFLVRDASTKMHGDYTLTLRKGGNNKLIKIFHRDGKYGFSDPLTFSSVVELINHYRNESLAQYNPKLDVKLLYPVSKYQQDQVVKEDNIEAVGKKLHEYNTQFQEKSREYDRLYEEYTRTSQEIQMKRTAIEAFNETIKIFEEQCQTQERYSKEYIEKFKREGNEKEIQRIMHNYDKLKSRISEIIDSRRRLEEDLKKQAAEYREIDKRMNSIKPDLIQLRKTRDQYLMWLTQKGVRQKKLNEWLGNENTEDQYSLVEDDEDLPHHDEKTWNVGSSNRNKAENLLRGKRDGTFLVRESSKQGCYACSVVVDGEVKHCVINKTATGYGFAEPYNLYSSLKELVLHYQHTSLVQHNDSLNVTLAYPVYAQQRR

protein kinases = assay: DiscoveRx's KinomeScan selectivity profile; type: binding; conditions: 1 μM
[7] = tested on: LC3BII accumulation in HeLa cells; assay: LC3BII accumulation in the presence of EBSS and HCQ (immunoblot); type: cell-based; conditions: Homo sapiens, EBSS and HCQ (25 μM), read-out: EC50 prevention of LC3BII accumulation
Experimental: as §1

OCI-AML-3 = assay: Cell cycle analysis; type: cell-based; conditions: OCI-AML-3, 48 h treatment

T1 sequence (Q8NEB9 whole entry): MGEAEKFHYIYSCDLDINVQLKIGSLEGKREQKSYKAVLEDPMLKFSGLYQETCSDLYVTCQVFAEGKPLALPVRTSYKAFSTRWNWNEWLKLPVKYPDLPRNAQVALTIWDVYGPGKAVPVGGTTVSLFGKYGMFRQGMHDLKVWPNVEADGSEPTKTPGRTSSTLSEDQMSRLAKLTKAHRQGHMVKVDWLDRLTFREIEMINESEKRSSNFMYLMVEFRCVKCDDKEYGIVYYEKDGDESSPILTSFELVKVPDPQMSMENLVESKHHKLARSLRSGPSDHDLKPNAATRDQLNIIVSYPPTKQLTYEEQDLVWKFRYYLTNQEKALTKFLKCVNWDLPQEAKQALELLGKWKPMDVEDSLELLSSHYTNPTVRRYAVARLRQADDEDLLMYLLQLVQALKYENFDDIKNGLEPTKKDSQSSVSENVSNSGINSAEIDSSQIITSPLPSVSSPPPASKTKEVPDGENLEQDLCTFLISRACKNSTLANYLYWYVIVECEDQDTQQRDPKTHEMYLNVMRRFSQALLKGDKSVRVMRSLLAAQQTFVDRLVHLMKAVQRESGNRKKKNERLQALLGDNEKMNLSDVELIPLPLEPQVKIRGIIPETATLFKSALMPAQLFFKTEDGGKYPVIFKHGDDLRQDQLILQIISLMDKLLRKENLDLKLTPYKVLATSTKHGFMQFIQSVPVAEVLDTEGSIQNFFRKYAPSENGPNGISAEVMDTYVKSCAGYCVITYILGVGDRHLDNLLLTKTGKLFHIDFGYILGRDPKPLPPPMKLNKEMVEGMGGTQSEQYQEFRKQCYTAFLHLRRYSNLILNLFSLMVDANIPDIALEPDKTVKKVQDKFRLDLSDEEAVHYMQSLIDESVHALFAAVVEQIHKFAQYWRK

With Cc1nc(NC(=O)CN)sc1-c1cnc(Cl)c(NS(=O)(=O)c2ccc(C(C)(C)C)cc2)c1 [PI3KD/V-IN-01, 2-amino-N-(5-(5-(4-tert-butylphenylsulfonamido)-6-chloropyridin-3-yl)-4-methylthiazol-2-yl)acetamide] the IC50 (VPS34 [1]) was 0.019 µM, the IC50 (PI4KA) was greater than 10 µM and the IC50 (PI3Kδ) was 0.006 µM. For the same molecule, the EC50 (mTORC1 kinase) was 1.7 µM, the “Mode of inhibition against Vps34” value (VPS34 [2]) was “ATP competitive inhibitor” and the GI50 (NOMO-1) was 2.3 µM. For the same molecule, the GI50 (HT) was 1.9 µM, the induction of apoptosis (MV4-11) was “apparent PARP cleavage observed” and the IC50 (PI3Kα) was 0.064 µM. For the same molecule, the “effect on pERK” value (pERK in MEC-2 cells) was “significantly inhibited”, the “Effect on lysosome marker LAMP1 localization” value [3] was “affected” and the EC50 (OCI-AML-2) was 0.145 µM. For the same molecule, the GI50 (MEC-1) was greater than 10 µM, the “Effect on LC3B puncta” value [4] was “increased LC3B puncta” and the EC50 (MEC-2 [5]) was 1.58 µM. For the same molecule, the cell cycle progression (MEC-2 [6]) was “arrested in the G0/G1 phase”, the inhibition at 1 µM (primary CLL cells) was roughly 50% and the GI50 (CMK) was 2 µM. The IC50 (PI3Kβ) was 0.111 µM, the “S score (5)” value (protein kinases) was 0.00 and the EC50 [7] was 0.413 µM. For the same molecule, the cell cycle progression (OCI-AML-3) was “arrested in the G0/G1 phase”.
